Data as given in ChEMBL document CHEMBL4196011, “The lead optimization of the polyamine conjugate of flavonoid with a naphthalene motif: Synthesis and biological evaluation” (Eur J Med Chem, 2018).
Calls of active or inactive are those of the source. The rule behind the calls is not given here.

How the values were obtained:
[1] = test system: HepG2; experiment: Induction of apoptosis in human HepG2 cells assessed as early apoptotic cells at 2.5 uM after 8 hrs by Annexin V-FITC/propidium iodide staining-based flow cytometry (reference value: 1.29%); format: functional
[2] = test system: HepG2; experiment: Induction of apoptosis in human HepG2 cells assessed as late apoptotic cells at 7.5 uM after 8 hrs by Annexin V-FITC/propidium iodide staining-based flow cytometry (reference value: 0.88%); format: functional
[3] = test system: HepG2; experiment: Induction of autophagy in human HepG2 cells assessed as increase in LC3-2 expression at 5 uM in presence of autophagy inhibitor 3-MA by Western blot analysis; format: functional, cell-based
[4] = test system: HepG2; experiment: Induction of apoptosis in human HepG2 cells assessed as early apoptotic cells at 5 uM after 24 hrs by Annexin V-FITC/propidium iodide staining-based flow cytometry (reference value: 2.07%); format: functional
[5] = test system: HepG2; experiment: Induction of apoptosis in human HepG2 cells assessed as necrotic cells at 2.5 uM after 48 hrs by Annexin V-FITC/propidium iodide staining-based flow cytometry (reference value: 0.08%); format: functional
[6] = test system: HepG2; experiment: Induction of apoptosis in human HepG2 cells assessed as necrotic cells at 5 uM after 8 hrs by Annexin V-FITC/propidium iodide staining-based flow cytometry (reference value: 0.40%); format: functional
[7] = test system: HepG2; experiment: Induction of apoptosis in human HepG2 cells assessed as necrotic cells at 5 uM after 48 hrs by Annexin V-FITC/propidium iodide staining-based flow cytometry (reference value: 0.08%); format: functional
[8] = test system: HepG2; experiment: Induction of apoptosis in human HepG2 cells assessed as necrotic cells at 2.5 uM after 36 hrs by Annexin V-FITC/propidium iodide staining-based flow cytometry (reference value: 0.24%); format: functional
[9] = test system: HepG2; experiment: Induction of apoptosis in human HepG2 cells assessed as caspase 3 activation after 48 hrs by immunofluorescence staining-based high content screening assay; format: functional, cell-based
[10] = test system: HepG2; experiment: Induction of apoptosis in human HepG2 cells assessed as late apoptotic cells at 2.5 uM after 8 hrs by Annexin V-FITC/propidium iodide staining-based flow cytometry (reference value: 0.88%); format: functional
[11] = test system: Mus musculus; experiment: Toxicity in Kunming mouse xenografted with […] H22 cells assessed as effect on body weight at 30 mg/kg, iv administered for 7 consecutive days; format: organism-based; conditions: in vivo
[12] = test system: HepG2; experiment: Induction of apoptosis in human HepG2 cells assessed as viable cells at 2.5 uM after 36 hrs by Annexin V-FITC/propidium iodide staining-based flow cytometry (reference value: 96.6%); format: functional; conditions: HepG2, 36 h, read-out: Activity
[13] = test system: HepG2; experiment: Induction of autophagy in human HepG2 cells assessed as increase in LC3-2 expression at 5 uM by Western blot analysis; format: functional, cell-based
[14] = test system: HepG2; experiment: Induction of apoptosis in human HepG2 cells assessed as viable cells at 2.5 uM after 48 hrs by Annexin V-FITC/propidium iodide staining-based flow cytometry (reference value: 96.67%); format: functional; conditions: HepG2, 48 h, read-out: Activity
[15] = test system: Mus musculus; experiment: Toxicity in Kunming mouse xenografted with […] H22 cells assessed as effect on liver weight index at 30 mg/kg, iv administered for 7 consecutive days; format: organism-based; conditions: in vivo
[16] = test system: HepG2; experiment: Induction of apoptosis in human HepG2 cells assessed as viable cells at 2.5 uM after 8 hrs by Annexin V-FITC/propidium iodide staining-based flow cytometry (reference value: 97.43%); format: functional; conditions: HepG2, 8 h, read-out: Activity
[17] = test system: HepG2; experiment: Induction of apoptosis in human HepG2 cells assessed as necrotic cells at 7.5 uM after 8 hrs by Annexin V-FITC/propidium iodide staining-based flow cytometry (reference value: 0.40%); format: functional

SMILES: COc1ccc2cc(-c3oc4c(CNCCCCN)cccc4c(=O)c3OC)ccc2c1Br.Cl.Cl
- Activity [1]: 2.06%
- Activity [2]: 3.38%
- Activity [3]: inactive
- Activity [4]: 15.76%
- Activity [5]: 0.29%
- Activity [6]: 0.03%
- Activity [7]: 3.39%
- Activity [8]: 3.9%
- Activity [9]: Dose-dependent effect
- Activity [10]: 1.52%
- Activity [11]: Non-Toxic
- viability at 2.5 µM [12]: 84%
- Activity [13]: Active
- viability at 2.5 µM [14]: 74.1%
- Activity [15]: Non-Toxic
- viability at 2.5 µM [16]: 96.1%
- Activity [17]: 0.05%
